Laboratory results from patent US12629347B2, “Compounds and dosage regimen for use in the prevention or treatment of chronic inflammatory and/or autoimmune diseases” (Immunic AG, priority 2017, dated 2026).
Like-named read-outs stand apart in the source and are kept apart here. Marks after values point to notes of the source that are not given here.

Key:
[1] = Phase I SAD study (P1-IMU-838-SAD): plasma concentration after single dose; format: in vivo; details: human, oral, read-out: maximum plasma concentrations (cmax)
[2] = Phase I SAD study: uric acid in 24 h collected urine; format: in vivo, human; details: for Uric acid, Pre dose (−24 h to 0): 24 h urine; for Increase of mean uric acid levels: post dose vs pre dose
Description: (§1) During the IMU-838 (vidofludimus-calcium) phase I SAD study (Immunic study number P1-IMU-838-SAD), urine was collected from all volunteers and tested with respect to the amount of clinical relevant anions, including urate and oxalate. In addition, formation of anion crystals in the urine was measured. In this study, IMU-838 was tested as a single dose applied to male healthy volunteers. Five different dose regimens were tested which covered four different doses of IMU-838: 10 mg, 20 mg, 30 mg and 40 mg of IMU-838 in fastened patients, which means no food intake 10 hours prior to the treatment and two hours after dose application. In addition, one dose group received 10 mg of IMU-838 in fed state which means that the 10 mg dose was applied after a high-fat breakfast. Each group consisted of six healthy volunteers, except for the 40 mg dose group with only five volunteers.
The pre-dose value was derived from urine collected 24 hours before application of IMU-838 tablets. The post dose value was obtained by collecting 24 hours urine starting 4 hours after intake of IMU-838.

[3] = Clinical study comparing treatment with and without pre-treatment phase: uric acid excreted in urine; format: in vivo, human; details: for Change in Median uric acid excreted in urine: Day 0 (first day of 50 mg dose), n 8
Description: A double-blind clinical study, Placebo controlled, Ascending Dose has been conducted. This study has been reported (Study Number P1-IMU-838-MAD).
Uric acid excretion in urine could be however modified with a pre-treatment period.

[4] = Phase I SAD study: RBC in urine / hematuria; format: in vivo, human
Description: as §1
Treatment of humans with IMU-838 leads to dose dependent increase of urate excretion through the urine and thus to formation of urate (micro)crystals.

[5] = Three week phase I trial with dose-in phase (25 mg then 50 mg): urate in 24 h urine; format: in vivo, human; details: all 20 subjects incl. placebo
Description: 8 individuals were treated with 25 mg for 7 days, followed by 14 day treatment with a dose of 50 mg once daily. Another 8 volunteers were treated with placebo (dose 1=0 mg) for 7 days followed by treatment of 50 mg IMU-838. 4 volunteers received placebo for the whole time.
Based on the observations on a) dose dependent effect of IMU-838 on urate levels in the urine and formation of small crystals (example 1) and b) the time course and dose dependence of urate level changes in single volunteers (example 2) a new therapeutic treatment scheme was invented. In this example a treatment scheme was applied to a three week clinical phase I trial consisting of two different doses “dose 1” of 25 mg daily dose and “dose 2” of 50 mg daily dose. 8 subjects received a lower dose 1 for 7 days followed by the higher (double) dose 2 for further 14 days, whereas another 8 subjects received placebo for 7 days then followed by treatment with the 50 mg high dose (dose 2). 4 subjects received placebo during the foll three week period. During this study urine was collected at four different timepoints (pre-dose, day 1, day 7, day 14) and analyzed for urate/uric acid levels.

[6] = Phase I MAD trial (P1-IMU-838-MAD): uric acid in 24 h urine, 14 days once daily without predosing; format: in vivo, human
Description: Each group consists of 16 patients with 12 individuals receiving active drug IMU-838 (either 30 or 40 mg per day) and 4 patients receiving placebo.
In a randomized, placebo controlled double blind clinical Phase I MAD trial (Immunic study number P1-IMU-838-MAD), IMU-838 was applied to healthy volunteers for 14 days in order to test the effects of IMU-838 on safety and biomarkers for repeated once daily doses over 14 days. In the first part of this study, 12 individuals were treated with 30 mg of IMU-838, 12 individuals were treated with 40 mg of IMU-838 and 8 individuals received placebo (4 individuals in each group). For all 32 individuals, urate levels in the urine was quantified in three periods of 24 hour urine collection. The first collection was at pre-dose (day 0). The second urine collection started four hours after intake of the first dose (day 1, 4 hours to 28 hours). The third collection of urine was performed on the last day of the 14 day treatment cycle (day 14, 4 hours to 28 hours). The amounts of uric acid at those timepoints is depicted in FIG. 2a.

[7] = Clinical observations with vidofludimus: blood uric acid, urine RBC, hematuria; format: in vivo, human
Description: A novel class of compounds with an inhibitory effect on DHODH, in particular human DHODH, was found and described in EP 2 093 214 A1. Vidofludimus (CAS 717824-30-1) is the free acid of a compound according to formula (I) and is tested in clinical trials in human subjects. […] Higher dose means e.g. doses higher than […] once daily application of vidofludimus in humans. However, doses of compounds of formula (I), e.g. higher than 200 μmol once daily application, sometimes lead to undesirable side effects such as an increased risk of increased red blood cell count (RBC) in the urine (hematuria).
At high vidofludimus doses (i.e. ≥70 mg/day or single doses of ≥210 mg) a decrease in blood uric acid levels and an increase in urine red blood cell count were observed, in very rare cases, presenting as symptomatic hematuria during the first 7 days of treatment. Laboratory findings were consistent with post-renal events and de novo precipitates in the urinary tract.
A side effect that may also be termed adverse effect is a harmful and undesired effect resulting from medication during its use in the prevention and/or treatment of a patient with the inventive compound (I).

[8] = high doses, ≥70 mg/day or single doses of ≥210 mg

For `COc1cccc(-c2ccc(NC(=O)C3=C(C(=O)O)CCC3)c(F)c2)c1` [IMU-838], the Cmax ([1]; single dose 10 mg IMU-838, fasted male healthy volunteers) was 1580 ng/mL, the Cmax ([1]; male, single dose 40 mg IMU-838, fasted) was 7860 ng/mL and the “Uric acid, Pre dose (−24 h to 0)” value ([2]; 10 mg fasted group, N = 6, baseline before dosing) was 520 mg/24 h. For the same compound, the “Uric acid, Pre dose (−24 h to 0)” value ([2]; 40 mg fasted group, N = 4, baseline before dosing) was 489^a mg/24 h, the “Uric acid, Post dose (4 to 28 h)” value ([2]; single dose 10 mg fasted, N = 6, 24 h urine) was 637 mg/24 h and the “Increase of mean uric acid levels” value ([2]; single dose 10 mg fasted) was 117 mg/24 h. The “Uric acid, Post dose (4 to 28 h)” value ([2]; single dose 40 mg fasted, N = 5, 24 h urine) was 734 mg/24 h, the “Increase of mean uric acid levels” value ([2]; single dose 40 mg fasted) was 245 mg/24 h and the “urinary excretion of uric acid after treatment initiation” value ([3]; P1-IMU-838-MAD dose groups) was “increased in all but the 30 mg group”. The “Change in Median uric acid excreted in urine” value ([3]; Placebo pre-treatment then 50 mg) was 86.5 mg/24 h, the “Change in Median uric acid excreted in urine” value ([3]; Pre-dosing 25 mg for 6 days then 50 mg) was 49.5 mg/24 h and the “dose limiting side effects like hematuria” value ([4]; doses up to 40 mg of IMU-838) was “no dose limiting side effects like hematuria occurred”. For the same compound, the “RBC (red blood cell count) in urine” value ([4]; single doses 10 to 40 mg) was “not leading to increase of RBC”, the “mean 24 hours urinary urate level” value ([5]; after 1 day of treatment (4-28 hours)) was 789.5 mg and the “mean increase in 24 hours urinary urate levels” value ([5]; after 1 day of treatment (4-28 hours), dose 1 25 mg) was 15%. For the same compound, the “mean 24 hours urinary urate level” value ([5]; after three weeks (day 21)) was 815.9 mg, the “overall increase of mean urinary urate level” value ([5]; day 21 vs first day of dose 2) was 4% and the “mean 24 hours urinary urate level” value ([5]; first day of dose 2 50 mg (day 7 of the full trial)) was 789.7 mg. The “mean 24 hours urinary urate level” value ([5]; pre-dose baseline) was 684.1 mg, the “increase of uric acid compared with pre-treatment” value ([6]; 30 mg and 40 mg groups, after the full 14 days treatment) was “around 30%” and the “amount of uric acid in 24 hour urine” value ([6]; 30 mg group, pre-dose (day 0) baseline) was 605.9 mg. The “increase of uric acid in urine” value ([6]; 30 mg once daily, after 14 days vs pre-dose) was 29%, the “increase of uric acid in urine at day one” value ([6]; 30 mg once daily, day 1 (4 to 28 hours)) was “no increase” and the “amount of uric acid in 24 hour urine” value ([6]; 30 mg once daily, day 14) was 686.2 mg. The “amount of uric acid in 24 hour urine” value ([6]; 40 mg group, pre-dose (day 0) baseline) was 541.4 mg, the “amount of uric acid in 24 hour urine” value ([6]; 40 mg once daily, day 14) was 699.3 mg and the “amount of uric acid in 24 hour urine” value ([6]; 40 mg once daily, first day (4-28 hours after intake)) was 620.3 mg. The “increase of uric acid in urine” value ([6]; 40 mg once daily, first day (4-28 hours) vs pre-dose) was 15.2%.
With `COc1cccc(-c2ccc(NC(=O)C3=C(C(=O)O)CCC3)c(F)c2)c1` [vidofludimus] the symptomatic hematuria ([7]; daily doses of 35 mg) was “no cases of symptomatic hematuria”, the “blood uric acid levels” value [7, 8] was “decrease” and the “urine red blood cell count” value [7, 8] was “increase”.
